{"source": "patent US20230414554A1", "about": "“COMPOUNDS FOR TREATING HEPATOCELLULAR CARCINOMA” (SERVICIO ANDALUZ DE SALUD, priority 2020, published 2023)", "key": {"THLE-2 cells": {"system": "THLE-2 cells", "assay": "Cell proliferation/viability of cell line derived from normal hepatocytes", "type": "cell-based", "conditions": "after 72 h; pladienolide-B 10^−8 M, sorafenib 5 nM", "method": "Cell lines and treatments HepG2, Hep3b, and SNU-387 (HB-8065) cell lines were purchased from ATCC (Manassas, USA) and cultured as recommended. The cells were kept at 37° C. and 5% CO2, and periodically validated by means of STR analysis (GenePrint, Promega, Barcelona, Spain) and analyzed to detect mycoplasma contamination. THLE-2 cells were cultured according to the manufacturer's instructions. […] Positive controls [IGF-1 (10^−6M)] and negative controls [Paclitaxel (10^−7M)] were used.\nThe determination of cell proliferation, migration, apoptosis, clone and tumorsphere formation was performed as published previously."}, "[1]": {"system": "Hep3b-induced xenograft tumors", "assay": "Hep3b xenograft model, tumor growth and necrosis", "type": "in vivo, nude mice", "conditions": "sorafenib 30 mg/kg in drinking water for 3 days; histopathology vs vehicle", "method": "For in vitro and in vivo administrations, pladienolide-B (Santa Cruz, Heidelberg, Germany) was resuspended in DMSO (Sigma-Aldrich, Madrid, Spain). For in vitro administration, sorafenib (LC Laboratories, Woburn, USA) was dissolved in DMSO. […] For in vivo tests, sorafenib was dissolved in Cremophor EL/ethanol (50:50).\nExperiments with xenograft mice were conducted in accordance with the European Animal Care Regulations under the approval of the university/regional government research ethics committees. 5×10^6 Hep3b cells (n=16 mice; n=32 tumors) in 50 μl of BME (Trevigen, Gaithersburg, MD) were subcutaneously grafted on both flanks of eight-week-old male Fox1nu/Foxn1nu nude mice (Janvier Labs, Le Genest-Saint-Isle, France). Tumor growth was monitored twice a week for 2 months by means of using a digital caliper. In the third week after grafting, when tumors were visible, the mice were treated with vehicle, pladienolide B, sorafenib, or the combination thereof (n=4 mice/treatment; n=8 tumors/treatment). Sorafenib (30 mg/kg) was administered dissolved in drinking water for 3 days; whereas the water of the remaining mice was treated with cremophor/ethanol vehicle. Pladienolide-B (10^−8M) was injected intratumorally on the second day of treatment with sorafenib. […] Tumor necrosis was evaluated after hematoxylin and eosin staining by expert pathologists."}}}
{"molecule": "CNC(=O)c1cc(Oc2ccc(NC(=O)Nc3ccc(Cl)c(C(F)(F)F)c3)cc2)ccn1", "note": "[sorafenib, reference compound]", "values": [{"measurement": "viability of THLE-2 cells", "setting": "THLE-2 cells", "result": "significantly reduced same"}, {"measurement": "tumor necrosis", "setting": "[1]", "result": "greater necrosis than tumors treated with vehicle"}]}
